Data published in patent publication US12156883B2, “Bisphosphocin gel formulations and uses thereof” (Lakewood Amedex, Inc., priority 2017, dated 2024).
“Also recorded” adds a separate entry of the source.

Test system: methicillin resistant Staphylococcus aureus strain USA300 (TPPS 1056)
Assay: Staphylococcus aureus-induced murine dermal infection model
Assay type: in vivo
Conditions: female SKH1 mice, topical 10% Nu-3 fatty alcohol-based gel pH 1.5, 4 h after challenge
Description: Female SKH1 mice ordered from Charles River Laboratories are acclimated to housing conditions and handled in accordance with Animal Use Protocol (AUP) number TP-18. The animals are acclimated for a minimum of 24 hours prior to bacterial challenge and are 6-8 weeks old on Day 0 of the experiment. Only animals deemed healthy are included in this study. Animals are fed irradiated Teklad Global Rodent Diet 2918 and water ad libitum. Mice are housed in static cages with irradiated Teklad ⅛″ corn cob bedding 7902 inside bioBubble® Clean Rooms that provide H.E.P.A. filtered air into the bubble environment at 100 complete air changes per hour. All treatments and infectious challenges are carried out in a BSL2 surgical suite. The environment is controlled to a temperature range of 74°±4° F. and a humidity range of 30-70%. […]
Immediately following tape stripping, each animal receives a topical application with approximately 6.0 log10 CFU per mouse in a volume of 100 μL spread in an area approximately 0.75″×0.75″. […] The final CFU count from the challenge suspension determined that 5.6 log10 CFU per mouse is delivered. […]
Following euthanasia, a section of excised skin approximately 0.5″×0.5″ is aseptically removed from the infected/treated area and transferred to vials with 2.0 mL of sterile water and weighed. […] Tissue pH is measured using litmus paper and recorded. […]

CCCCOP(=O)(O)OC[C@H]1OC(n2cc(C)c(=O)[nH]c2=O)C[C@@H]1OP(=O)(O)OCCCC (stereo partly drawn) [Nu-3, (2R,3S)-2-((butoxy(hydroxy)phosphoryl)oxy)methyl)-5-(5-methyl-2,4-dioxo-3,4-dihydropyrimidin-1(2H)-yl)tetrahydrofuran-2-yl) butyl hydrogen phosphate]
CFU burden compared to untreated control animals (5 and 12 hours post-challenge): significant decreases; also recorded: significantly decreases | CFU burden compared to vehicle-treated animals (all harvest time points): significant decreases; also recorded: significantly decreases
